Measured values reported in ChEMBL document CHEMBL1145452, “In vitro structure-activity relationship and in vivo characterization of 1-(aryl)-3-(4-(amino)benzyl)urea transient receptor potential vanilloid 1 antagonists” (J Med Chem, 2007).
Values after ≈ are worked out from the molar mass of the structure shown.

Assays:
[1] = test system: Rattus norvegicus; test: Effect on CFA-induced thermal hyperalgesia in po dosed rat; type: functional
[2] = Half life in rat at 10 umol/kg; type: ADME, organism-based; conditions: in vivo
[3] = Cmax in rat at 10 umol/kg, po; type: ADME, organism-based; parameters: dose 10 umol/kg, route oral; conditions: in vivo
[4] = test system: Liver microsomes; test: Stability in rat liver microsomes at 0.5 uM after 30 mins; type: ADME, Microsome; conditions: 0.5 h
[5] = Volume of distribution in rat at 10 umol/kg; type: ADME, organism-based; conditions: in vivo, read-out: Vbeta
[6] = target: Transient receptor potential cation channel subfamily V member 1 (Homo sapiens, UniProt Q8NER1); test: Antagonist activity at human TRPV1 receptor by calcium influx assay; type: functional
[7] = Plasma clearance in rat at 10 umol/kg; type: ADME, organism-based
[8] = test system: Liver microsomes; test: Stability in human liver microsomes at 0.5 uM after 30 mins; type: ADME, Microsome; conditions: 0.5 h
[9] = Oral bioavailability in dog; type: ADME, organism-based, Canis lupus familiaris; conditions: in vivo
[10] = Oral bioavailability in rat at 10 umol/kg, po; type: ADME, organism-based; conditions: in vivo
[11] = target: Translocator protein (Homo sapiens, UniProt P30536); test: Binding affinity to peripheral benzodiazepine receptor
[12] = target: T1, Adenosine receptor A3 (Homo sapiens, UniProt P0DMS8); test: Binding affinity to adenosine A3 receptor
T1 sequence (P0DMS8 whole entry): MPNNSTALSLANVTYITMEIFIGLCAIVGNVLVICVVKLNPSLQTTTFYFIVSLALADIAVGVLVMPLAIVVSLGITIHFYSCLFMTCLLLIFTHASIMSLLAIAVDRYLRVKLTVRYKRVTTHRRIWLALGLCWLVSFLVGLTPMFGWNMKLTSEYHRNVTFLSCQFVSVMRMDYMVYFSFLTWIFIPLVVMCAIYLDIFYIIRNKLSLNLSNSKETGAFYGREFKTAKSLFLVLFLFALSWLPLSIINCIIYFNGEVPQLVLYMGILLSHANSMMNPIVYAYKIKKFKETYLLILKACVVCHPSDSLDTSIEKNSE

[13] = species: Homo sapiens; test: Protein binding in human plasma; conditions: read-out: PPB (converted)
[14] = Aqueous solubility at pH 6.8; type: physicochemical; conditions: buffer
[15] = Aqueous solubility at pH 2.0; type: physicochemical
[16] = Protein binding in rat plasma; type: ADME, cell-free; conditions: read-out: PPB (converted)
[17] = Binding affinity to sodium channel; parameters: species or system Homo sapiens

Sequence of Transient receptor potential cation channel subfamily V member 1 (Q8NER1 whole entry): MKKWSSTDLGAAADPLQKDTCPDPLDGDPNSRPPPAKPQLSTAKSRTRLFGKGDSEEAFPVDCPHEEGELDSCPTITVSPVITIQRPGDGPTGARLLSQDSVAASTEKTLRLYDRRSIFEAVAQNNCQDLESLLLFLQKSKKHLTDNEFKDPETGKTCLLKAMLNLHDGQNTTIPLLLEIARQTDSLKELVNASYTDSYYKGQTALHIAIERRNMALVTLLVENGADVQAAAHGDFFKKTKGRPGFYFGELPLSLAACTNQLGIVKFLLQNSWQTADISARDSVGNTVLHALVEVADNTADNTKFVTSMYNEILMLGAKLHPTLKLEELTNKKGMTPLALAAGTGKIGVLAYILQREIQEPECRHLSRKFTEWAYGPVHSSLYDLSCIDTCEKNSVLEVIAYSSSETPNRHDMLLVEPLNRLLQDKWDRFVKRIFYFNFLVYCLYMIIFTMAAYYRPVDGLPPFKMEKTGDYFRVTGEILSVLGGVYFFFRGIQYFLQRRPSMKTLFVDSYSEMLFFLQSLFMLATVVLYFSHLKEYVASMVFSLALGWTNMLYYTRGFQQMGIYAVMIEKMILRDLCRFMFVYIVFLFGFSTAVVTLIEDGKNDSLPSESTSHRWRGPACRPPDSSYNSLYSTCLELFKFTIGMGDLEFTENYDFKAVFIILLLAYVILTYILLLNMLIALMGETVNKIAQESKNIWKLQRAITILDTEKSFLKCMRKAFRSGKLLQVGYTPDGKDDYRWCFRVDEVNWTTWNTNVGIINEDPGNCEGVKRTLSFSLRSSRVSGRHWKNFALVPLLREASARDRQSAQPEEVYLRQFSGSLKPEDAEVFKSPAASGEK
Sequence of Translocator protein (P30536 whole entry): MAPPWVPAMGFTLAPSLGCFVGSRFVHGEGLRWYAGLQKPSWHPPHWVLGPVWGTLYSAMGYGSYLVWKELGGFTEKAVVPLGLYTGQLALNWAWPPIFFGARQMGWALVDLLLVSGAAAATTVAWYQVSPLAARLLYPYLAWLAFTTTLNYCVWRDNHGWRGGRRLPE

Row | IC50 [6] [nM] | SMILES | further results
1 | 2.8 | O=C(NCc1ccc(N2CCCCCC2)c(F)c1)Nc1cccc2cnccc12 | ED50 [1]: 30 µmol/kg; half-life [2]: 0.69 h; Cmax [3]: 150 ng/mL; Stability [4]: 366 pmol/min/mg; Vd [5]: 1.8 L/kg; clearance [7]: 30 mL/min/kg; Stability [8]: 1223 pmol/min/mg; bioavailability [9]: 18%; bioavailability [10]: 10%
2 | 43.2 | O=C(NCc1ccc(N2[C@@H]3CCC[C@H]2CC3)c(Br)c1)Nc1cccc2[nH]ncc12 | –
3 | 190 | O=C(NCc1ccc(N2CCCCCC2)cc1Cl)Nc1cccc2[nH]ncc12 | –
4 | 156 | O=C(NCc1ccc(N2CCOCC2)cc1)Nc1cccc2cnc(Cl)cc12 | –
5 | 4.7 | O=C(NCc1ccc(N2CCCCCCC2)cc1)Nc1cccc2cnccc12 | –
6 | 2.1 | O=C(NCc1ccc(C(F)(F)F)cc1)Nc1cccc2cnccc12 | Stability [4]: 383 pmol/min/mg; Stability [8]: 135 pmol/min/mg
7 | 9.8 | Nc1cc2c(NC(=O)NCc3ccc(N4CCCCCC4)cc3)cccc2cn1 | –
8 | 19 | Cn1ncc2c(NC(=O)NCc3ccc(N4[C@@H]5CCC[C@H]4CC5)cc3Cc3ccccc3)cccc21 | –
9 | 157 | O=C1C[C@H]2CC[C@@H](C1)N2c1cc(F)c(CNC(=O)Nc2cccc3[nH]ncc23)cc1F | –
10 | 19.8 | Cc1cc(CNC(=O)Nc2cccc3[nH]ncc23)ccc1N1[C@@H]2CCC[C@H]1CC2 | –
11 | 9.3 | CC1CCN(c2ccc(CNC(=O)Nc3cccc4cnccc34)cc2)CC1 | –
12 | 4.6 | O=C(NCc1ccc(N2CCCCCC2)c(C(F)(F)F)c1)Nc1cccc2cnccc12 | Stability [4]: 689 pmol/min/mg; Stability [8]: 643 pmol/min/mg
13 | 5.2 | O=C(NCc1ccc(N2CCCCCC2)cc1Cl)Nc1cccc2cnccc12 | –
14 | 9.3 | O=C(NCc1cc(F)c(N2CCOCC2)c(F)c1)Nc1cccc2cnccc12 | –
15 | 258 | CC1CN(c2ccc(CNC(=O)Nc3cccc4cnccc34)cc2)CC(C)O1 (stereo not drawn) | –
16 | 35.3 | CC(C)c1cc(N2[C@@H]3CCC[C@H]2CC3)ccc1CNC(=O)Nc1cccc2[nH]ncc12 | –
17 | 25.5 | O=C(NCc1ccc(N2[C@@H]3CCC[C@H]2CC3)c(F)c1F)Nc1cccc2[nH]ncc12 | –

Row | IC50 [6] [nM] | SMILES | further results
18 | 902 | Cn1c2ccccc2c2cc(CNC(=O)Nc3cccc4[nH]ncc34)ccc21 | –
19 | 7360 | Cc1cc2c(NC(=O)NCc3ccc(N4Cc5ccccc5C4)c(F)c3)cccc2cn1 | –
20 | 29 | Cc1cc(N2[C@@H]3CCC[C@H]2CC3)ccc1CNC(=O)Nc1cccc2[nH]ncc12 | –
21 | 82 | O=C(NCc1cc(F)c(N2[C@@H]3CC[C@H]2CC2(C3)OCCO2)cc1F)Nc1cccc2[nH]ncc12 | –
22 | 157 | CN(C)c1ccc(CNC(=O)Nc2cccc3cnccc23)cc1 | –
23 | 39.3 | O=C(NCc1cc(F)c(N2CCCCCC2)c(F)c1)Nc1cccc2[nH]ncc12 | –
24 | 5.7 | O=C(NCc1ccc(N2CCCCCC2)cc1C(F)(F)F)Nc1cccc2cnccc12 | –
25 | 91 | O=C(NCc1ccc(N2CCOCC2)cc1)Nc1cccc2cnccc12 | –
26 | 3.3 | O=C(NCc1ccc(N2CCCCCC2)cc1)Nc1cccc2cnccc12 | –
27 | 3.3 | O=C(NCc1ccc(N2[C@@H]3CCC[C@H]2CC3)cc1)Nc1cccc2cnccc12 | Stability [4]: 247 pmol/min/mg; Stability [8]: 818 pmol/min/mg
28 | 14.2 | O=C(NCc1ccc(N2CCCCCC2)c(F)c1)Nc1cccc2[nH]ncc12 | –
29 | 133 | O=C(NCc1ccc(N2CCCCCC2)cc1C(F)(F)F)Nc1cccc2[nH]ncc12 | –
30 | 10.3 | CC(C)(C)CCc1cc(N2[C@@H]3CCC[C@H]2CC3)ccc1CNC(=O)Nc1cccc2[nH]ncc12 | –
31 | 3.8 | Cc1cc2c(NC(=O)NCc3ccc(N4CCCCCC4)cc3)cccc2cn1 | –
32 | 285 | CCN1CCc2cc(CNC(=O)Nc3cccc4[nH]ncc34)ccc21 | –
33 | 7.3 | O=C(NCc1ccc(N2CCCCC2)cc1)Nc1cccc2cnccc12 | –

Row | SMILES | IC50 [6] [nM] | further results
34 | O=C(NCc1ccc(N2[C@@H]3CCC[C@H]2CC3)c(C(F)(F)F)c1)Nc1cccc2[nH]ncc12 | 26.9 | ED50 [1]: 20 µmol/kg; half-life [2]: 1.4 h; Cmax [3]: 240 ng/mL; IC50 [11]: > 5000 nM; IC50 [12]: > 5000 nM; Stability [4]: 315 pmol/min/mg; Vd [5]: 2.1 L/kg; fraction unbound [13]: 0.03; clearance [7]: 16.7 mL/min/kg; Stability [8]: 445 pmol/min/mg; solubility [14]: < 0.001 µg/mL; solubility [15]: 14 µg/mL (≈ 31.6 µM); fraction unbound [16]: 0.014; bioavailability [9]: 46%; bioavailability [10]: 21%; IC50 [17]: > 5000 nM
35 | O=C(NCc1ccc(N2[C@@H]3CCC[C@H]2CC3)c(F)c1)Nc1cccc2[nH]ncc12 | 14.8 | Stability [4]: 394 pmol/min/mg; Stability [8]: 516 pmol/min/mg
36 | O=C(NCc1ccc(N2[C@@H]3CCC[C@H]2CC3)cc1)Nc1cccc2[nH]ncc12 | 18 | –
37 | O=C(NCc1ccc(N2[C@@H]3CCC[C@H]2CC3)c(Cl)c1)Nc1cccc2[nH]ncc12 | 20.4 | –
38 | O=C(NCc1cc(F)c(N2[C@@H]3CCC[C@H]2CC3)c(F)c1)Nc1cccc2[nH]ncc12 | 12.6 | –
39 | O=C(NCc1ccc(N2[C@@H]3CCC[C@H]2CC3)cc1C(F)(F)F)Nc1cccc2[nH]ncc12 | 54.5 | –
40 | O=C(NCc1ccc(N2[C@@H]3CCC[C@H]2CC3)cc1Cl)Nc1cccc2[nH]ncc12 | 58.8 | –
